From patent publication US12564193B2, “Isoxazoline-substituted benzamide derivative, and preparation method therefor and use thereof” (SHANDONG UNITED PESTICIDE INDUSTRY CO., LTD., priority 2020, dated 2026)
Where two headings read alike, the source gives them in different places.

Legend:
Assay type in all cases: in vivo
[1] = system: Frankliniella occidentalis; test: Insecticidal activity, spray on pre-infested radish plants: Frankliniella occidentalis; conditions: for Fatality rate on Frankliniella occidentalis (%): Table 3; for pest or weed control at 1 ppm / pest or weed control at 10 ppm / pest or weed control at 25 ppm: Frankliniella occidentalis, 144 h, read-out: fatality rate on Frankliniella occidentalis
Procedure: (§1) For determination of insecticidal activity, the test method was as follows: a test solution with a desired concentration was prepared by dissolving a test compound sample in a suitable solvent (the kind of solvent was such as acetone, methanol, DMSO, etc., and was selected according to its dissolving ability for the sample). The test cell was composed of a small open container with 12-15 day old radish plants inside. The plants were pre-infested by placing 30-40 pests located on one leaf cut from the cultivated plant on one leaf of the test plant (leaf cutting method). As the leaves dehydrated, the pests moved on the test plants. After the pre-infesting, the soil of the test cells was covered with a layer of sand.
The test method was as follows: the test was repeated for three times, and after spraying the formulated test compound, each test unit was allowed to dry for 1 hour, and then a black mesh cover was placed at the top. The test units were kept in a growth chamber at 25° C. and 70% relative humidity for 6 days. The mortality (fatality rate) of the insects was then visually assessed for each test unit, and the fatality rate was calculated as follows:
[formula] (1) Test Results for the Control of Frankliniella occidentalis by Exemplary Example Compounds

Plutella xylostella = test: Insecticidal activity, spray on pre-infested radish plants: Plutella xylostella; conditions: for Fatality rate on Plutella xylostella (%): Table 3; for pest or weed control at 0.1 ppm / pest or weed control at 1 ppm / pest or weed control at 10 ppm: Plutella xylostella, 144 h, read-out: fatality rate on Plutella xylostella
Procedure: as §1
(§2) The test method was as follows: the test was repeated for three times, and after spraying the formulated test compound, each test unit was allowed to dry for 1 hour, and then a black mesh cover was placed at the top. The test units were kept in a growth chamber at 25° C. and 70% relative humidity for 6 days. The mortality (fatality rate) of the insects was then visually assessed for each test unit, and the fatality rate was calculated as follows: […]

Cnaphalocrocis medinalis = test: Insecticidal activity, spray on pre-infested radish plants: Cnaphalocrocis medinalis; conditions: 144 h, read-out: fatality rate on Cnaphalocrocis medinalis
Procedure: as §1, §2

Tetranychus cinnabarinus = test: Acaricidal activity, slide immersion of female adult mites: Tetranychus cinnabarinus; conditions: read-out: fatality rate on Tetranychus cinnabarinus
Procedure: The test method was as follows: a test solution with a desired concentration was prepared by dissolving a test compound sample in a suitable solvent (the kind of solvent was such as acetone, methanol, DMSO, etc., and was selected according to its dissolving ability for the sample). A double-sided adhesive tape was cut into 2-3 cm long pieces, the pieces were attached to one end of a microscope slide, paper pieces on the adhesive tape were removed using tweezers, female adult mites which were consistent in size, bright in body color and lively in action were selected using a zero-size brush pen, the backs of the female adult mites were adhered to the double-sided adhesive tape (note: the adhesion should not cover mite feet, mite whiskers and mouthparts), with 4 rows of mites adhered to each piece and 10 heads of the mites adhered to each row.
One end of the glass slide with the mites was immersed into a drug liquid, with slightly shaking for 5 seconds, and then the slide was taken out. The excess drug liquid around the mite body and is surroundings is quickly sucked off using absorbent paper. The slide was placed in the biochemical incubator described above, and the results were checked by using binoculars after 24 hours. The mites were slightly touched by using a brush pen, the mites with immobility in feet were considered to be dead, and the fatality rate was calculated. The fatality rate was calculated as follows: […]

Spodoptera litura = test: Insecticidal activity, spray on pre-infested radish plants: Spodoptera litura; conditions: 144 h, read-out: fatality rate on Spodoptera litura
Procedure: as §1, §2

Mythimna separata = test: Insecticidal activity, spray on pre-infested radish plants: Mythimna separata; conditions: for Fatality rate on Mythimna separata (%): Table 3; for pest or weed control at 0.1 ppm / pest or weed control at 1 ppm / pest or weed control at 10 ppm: Mythimna separata, 144 h, read-out: fatality rate on Mythimna separata
Procedure: as §1, §2

Chilo suppressalis = test: Insecticidal activity, spray on pre-infested radish plants: Chilo suppressalis; conditions: for Fatality rate on Chilo suppressalis (%): Table 3; for pest or weed control at 0.1 ppm / pest or weed control at 1 ppm / pest or weed control at 10 ppm: Chilo suppressalis, 144 h, read-out: fatality rate on Chilo suppressalis
Procedure: as §1, §2

Pieris rapae = test: Insecticidal activity, spray on pre-infested radish plants: Pieris rapae; conditions: 144 h, read-out: fatality rate on Pieris rapae
Procedure: as §1, §2

[2] = dose 1 ppm, immersion 5 seconds, checked after 24 hours
[3] = dose 10 ppm, immersion 5 seconds, checked after 24 hours
[4] = dose 25 ppm, immersion 5 seconds, checked after 24 hours

SMILES: Cc1cc(C2=NOC(c3cc(F)c(F)c(F)c3)(C(F)(F)F)C2)ccc1C(=O)NCc1ncc(C(F)(F)F)cc1Cl (stereo not drawn) [Compound 10, N-((3-chloro-5-(trifluoromethyl)pyridin-2-yl)methyl)-2-methyl-4-(5-(trifluoromethyl)-5-(3,4,5-trifluorophenyl)-4,5-dihydroisoxazol-3-yl)benzamide]
- Fatality rate on Frankliniella occidentalis (%) ([1]; 1 ppm): 85%
- Fatality rate on Frankliniella occidentalis (%) ([1]; 10 ppm): 100%
- Fatality rate on Frankliniella occidentalis (%) ([1]; 25 ppm): 100%
- pest or weed control at 1 ppm ([1]; dose 1 ppm, spray, 6 days): > 80%
- pest or weed control at 10 ppm ([1]; dose 10 ppm, spray, 6 days): > 80%
- pest or weed control at 25 ppm ([1]; dose 25 ppm, spray, 6 days): > 80%
- Fatality rate on Plutella xylostella (%) (Plutella xylostella; 0.1 ppm): 90%
- Fatality rate on Plutella xylostella (%) (Plutella xylostella; 1 ppm): 100%
- Fatality rate on Plutella xylostella (%) (Plutella xylostella; 10 ppm): 100%
- pest or weed control at 0.1 ppm (Plutella xylostella; dose 0.1 ppm, spray, 6 days): > 80%
- pest or weed control at 1 ppm (Plutella xylostella; dose 1 ppm, spray, 6 days): > 80%
- pest or weed control at 10 ppm (Plutella xylostella; dose 10 ppm, spray, 6 days): > 80%
- pest or weed control at 0.1 ppm (Cnaphalocrocis medinalis; dose 0.1 ppm, spray, 6 days): > 80%
- pest or weed control at 1 ppm (Cnaphalocrocis medinalis; dose 1 ppm, spray, 6 days): > 80%
- pest or weed control at 10 ppm (Cnaphalocrocis medinalis; dose 10 ppm, spray, 6 days): > 80%
- pest or weed control at 1 ppm (Tetranychus cinnabarinus; [2]): > 80%
- pest or weed control at 10 ppm (Tetranychus cinnabarinus; [3]): > 80%
- pest or weed control at 25 ppm (Tetranychus cinnabarinus; [4]): > 80%
- pest or weed control at 0.1 ppm (Spodoptera litura; dose 0.1 ppm, spray, 6 days): > 80%
- pest or weed control at 1 ppm (Spodoptera litura; dose 1 ppm, spray, 6 days): > 80%
- pest or weed control at 10 ppm (Spodoptera litura; dose 10 ppm, spray, 6 days): > 80%
- Fatality rate on Mythimna separata (%) (Mythimna separata; 0.1 ppm): 85%
- Fatality rate on Mythimna separata (%) (Mythimna separata; 1 ppm): 100%
- Fatality rate on Mythimna separata (%) (Mythimna separata; 10 ppm): 100%
- pest or weed control at 0.1 ppm (Mythimna separata; dose 0.1 ppm, spray, 6 days): > 80%
- pest or weed control at 1 ppm (Mythimna separata; dose 1 ppm, spray, 6 days): > 80%
- pest or weed control at 10 ppm (Mythimna separata; dose 10 ppm, spray, 6 days): > 80%
- Fatality rate on Chilo suppressalis (%) (Chilo suppressalis; 0.1 ppm): 85%
- Fatality rate on Chilo suppressalis (%) (Chilo suppressalis; 1 ppm): 100%
- Fatality rate on Chilo suppressalis (%) (Chilo suppressalis; 10 ppm): 100%
- pest or weed control at 0.1 ppm (Chilo suppressalis; dose 0.1 ppm, spray, 6 days): > 80%
- pest or weed control at 1 ppm (Chilo suppressalis; dose 1 ppm, spray, 6 days): > 80%
- pest or weed control at 10 ppm (Chilo suppressalis; dose 10 ppm, spray, 6 days): > 80%
- pest or weed control at 0.1 ppm (Pieris rapae; dose 0.1 ppm, spray, 6 days): > 80%
- pest or weed control at 1 ppm (Pieris rapae; dose 1 ppm, spray, 6 days): > 80%
- pest or weed control at 10 ppm (Pieris rapae; dose 10 ppm, spray, 6 days): > 80%

SMILES: Cc1cc(C2=NOC(c3cc(F)c(F)c(F)c3)(C(F)(F)F)C2)ccc1C(=O)NCCc1cnccc1C(F)(F)F (stereo not drawn) [Compound 18]
- pest or weed control at 1 ppm ([1]; dose 1 ppm, spray, 6 days): > 80%
- pest or weed control at 10 ppm ([1]; dose 10 ppm, spray, 6 days): > 80%
- pest or weed control at 25 ppm ([1]; dose 25 ppm, spray, 6 days): > 80%
- pest or weed control at 0.1 ppm (Plutella xylostella; dose 0.1 ppm, spray, 6 days): > 80%
- pest or weed control at 1 ppm (Plutella xylostella; dose 1 ppm, spray, 6 days): > 80%
- pest or weed control at 10 ppm (Plutella xylostella; dose 10 ppm, spray, 6 days): > 80%
- pest or weed control at 0.1 ppm (Cnaphalocrocis medinalis; dose 0.1 ppm, spray, 6 days): > 80%
- pest or weed control at 1 ppm (Cnaphalocrocis medinalis; dose 1 ppm, spray, 6 days): > 80%
- pest or weed control at 10 ppm (Cnaphalocrocis medinalis; dose 10 ppm, spray, 6 days): > 80%
- pest or weed control at 1 ppm (Tetranychus cinnabarinus; [2]): > 80%
- pest or weed control at 10 ppm (Tetranychus cinnabarinus; [3]): > 80%
- pest or weed control at 25 ppm (Tetranychus cinnabarinus; [4]): > 80%
- pest or weed control at 0.1 ppm (Spodoptera litura; dose 0.1 ppm, spray, 6 days): > 80%
- pest or weed control at 1 ppm (Spodoptera litura; dose 1 ppm, spray, 6 days): > 80%
- pest or weed control at 10 ppm (Spodoptera litura; dose 10 ppm, spray, 6 days): > 80%
- pest or weed control at 0.1 ppm (Mythimna separata; dose 0.1 ppm, spray, 6 days): > 80%
- pest or weed control at 1 ppm (Mythimna separata; dose 1 ppm, spray, 6 days): > 80%
- pest or weed control at 10 ppm (Mythimna separata; dose 10 ppm, spray, 6 days): > 80%
- pest or weed control at 0.1 ppm (Chilo suppressalis; dose 0.1 ppm, spray, 6 days): > 80%
- pest or weed control at 1 ppm (Chilo suppressalis; dose 1 ppm, spray, 6 days): > 80%
- pest or weed control at 10 ppm (Chilo suppressalis; dose 10 ppm, spray, 6 days): > 80%
- pest or weed control at 0.1 ppm (Pieris rapae; dose 0.1 ppm, spray, 6 days): > 80%
- pest or weed control at 1 ppm (Pieris rapae; dose 1 ppm, spray, 6 days): > 80%
- pest or weed control at 10 ppm (Pieris rapae; dose 10 ppm, spray, 6 days): > 80%

SMILES: Cc1cc(C2=NOC(c3cc(Cl)c(F)c(Cl)c3)(C(F)(F)F)C2)ccc1C(=O)NCc1cnccc1C(F)(F)F (stereo not drawn) [Compound 3]
- pest or weed control at 1 ppm [1]: > 80%
- pest or weed control at 10 ppm [1]: > 80%
- pest or weed control at 25 ppm [1]: > 80%
- pest or weed control at 0.1 ppm (Plutella xylostella): > 80%
- pest or weed control at 1 ppm (Plutella xylostella): > 80%
- pest or weed control at 10 ppm (Plutella xylostella): > 80%
- pest or weed control at 0.1 ppm (Cnaphalocrocis medinalis): > 80%
- pest or weed control at 1 ppm (Cnaphalocrocis medinalis): > 80%
- pest or weed control at 10 ppm (Cnaphalocrocis medinalis): > 80%
- pest or weed control at 1 ppm (Tetranychus cinnabarinus; 24 h): > 80%
- pest or weed control at 10 ppm (Tetranychus cinnabarinus; 24 h): > 80%
- pest or weed control at 25 ppm (Tetranychus cinnabarinus; 24 h): > 80%
- pest or weed control at 0.1 ppm (Spodoptera litura): > 80%
- pest or weed control at 1 ppm (Spodoptera litura): > 80%
- pest or weed control at 10 ppm (Spodoptera litura): > 80%
- pest or weed control at 0.1 ppm (Mythimna separata): > 80%
- pest or weed control at 1 ppm (Mythimna separata): > 80%
- pest or weed control at 10 ppm (Mythimna separata): > 80%
- pest or weed control at 0.1 ppm (Chilo suppressalis): > 80%
- pest or weed control at 1 ppm (Chilo suppressalis): > 80%
- pest or weed control at 10 ppm (Chilo suppressalis): > 80%
- pest or weed control at 0.1 ppm (Pieris rapae): > 80%
- pest or weed control at 1 ppm (Pieris rapae): > 80%
- pest or weed control at 10 ppm (Pieris rapae): > 80%

SMILES: Cc1cc(C2=NOC(c3cc(Cl)c(F)c(Cl)c3)(C(F)(F)F)C2)ccc1C(=O)NCCc1ccc(Cl)nc1 (stereo not drawn) [Compound 15]
- pest or weed control at 1 ppm [1]: > 80%
- pest or weed control at 10 ppm [1]: > 80%
- pest or weed control at 25 ppm [1]: > 80%
- pest or weed control at 0.1 ppm (Plutella xylostella): > 80%
- pest or weed control at 1 ppm (Plutella xylostella): > 80%
- pest or weed control at 10 ppm (Plutella xylostella): > 80%
- pest or weed control at 0.1 ppm (Cnaphalocrocis medinalis): > 80%
- pest or weed control at 1 ppm (Cnaphalocrocis medinalis): > 80%
- pest or weed control at 10 ppm (Cnaphalocrocis medinalis): > 80%
- pest or weed control at 1 ppm (Tetranychus cinnabarinus; 24 h): > 80%
- pest or weed control at 10 ppm (Tetranychus cinnabarinus; 24 h): > 80%
- pest or weed control at 25 ppm (Tetranychus cinnabarinus; 24 h): > 80%
- pest or weed control at 0.1 ppm (Spodoptera litura): > 80%
- pest or weed control at 1 ppm (Spodoptera litura): > 80%
- pest or weed control at 10 ppm (Spodoptera litura): > 80%
- pest or weed control at 0.1 ppm (Mythimna separata): > 80%
- pest or weed control at 1 ppm (Mythimna separata): > 80%
- pest or weed control at 10 ppm (Mythimna separata): > 80%
- pest or weed control at 0.1 ppm (Chilo suppressalis): > 80%
- pest or weed control at 1 ppm (Chilo suppressalis): > 80%
- pest or weed control at 10 ppm (Chilo suppressalis): > 80%
- pest or weed control at 0.1 ppm (Pieris rapae): > 80%
- pest or weed control at 1 ppm (Pieris rapae): > 80%
- pest or weed control at 10 ppm (Pieris rapae): > 80%
